Experimental findings from paper PMC8398059, “Peptoids with Antibiofilm Activity against the Gram Negative Obligate Anaerobe, Fusobacterium nucleatum” (Molecules, 2021) are described below.

What all share (assay type): cell-based
One data set relates to human erythrocytes. Nature of the data set: Haemolytic assay. Conditions: peptoid 100 µM, 37 °C, 1 h, absorbance 450 nm; positive control 1% Triton x-100; n = 3 independent experiments, 3 replicates each. The procedure:
The haemolytic assay was employed to determine the potential cytotoxicity of the peptoids against human red blood cells. Blood samples were collected with ethical approval and informed consent in vacutainer containers with dipotassium ethylene- diaminetetraacetic acid (K2-EDTA). Blood was then transferred to a 50 mL tube and centrifuged at 1200× g for 5 min at room temperature. The supernatant was removed and PBS was added to the original volume of sample obtained. This step was repeated a further 3 times. The red blood cells were then diluted to 8% of their original volume for use in the haemolytic assay. A 1% solution of Triton x-100 in PBS served as a positive control, and PBS was used as a negative control.
Peptoids 1, 2, 3, 4, 5, 6, 7, 8 and 9 were diluted in PBS to 200 µM. A total volume of 100 µL of each peptoid was placed in the wells of a v-bottomed 96-well microtitre plate. Red blood cells (100 µL), prepared as outlined above, were then added. The final peptoid concentration in each well was therefore 100 µM. The plate was sealed with an adhesive film to prevent evaporation and incubated at 37 °C for 1 h. Following this time, the plate was centrifuged at 4000 RPM for 5 min to pellet unlysed red blood cells. Following this step, 100 µL of supernatant was carefully removed from each well and added to a flat-bottomed 96-well microtitre plate. The absorbance was read at 450 nm using a Tecan Genios (Männedorf, Switzerland) plate reader, and the percentage of red blood cells lysed was calculated.

For data set [1], the system named is human primary gingival fibroblasts. Nature of the data set: MTT cell viability assay. Conditions: peptoid 1 µM, 24 h, 37 °C; n = 3 independent experiments, 6 replicates each. On the procedure:
Cultured primary gingival fibroblast cells were obtained with ethical approval and informed consent, and were grown as previously described. Cells were seeded in 96-well plates at a concentration of 1 × 10^5 cells/mL (100 µL per well). Plates were incubated at 37 °C for 48 h to allow cells to reach confluence. Peptoids 1, 3, 4, 5, 6, 7 and 9 were diluted to 200 µM, 20 µM and 2 µM. The culture medium was removed and replaced with 50 µL of Dulbecco’s Modified Eagle’s Medium (DMEM) and 50 µL of the relevant peptoid. The cells were incubated for 24 h at 37 °C. After this time, 10 µL of 3-(4, 5- dimethylthiazol-2-yl)-2,5-diphenyltetrazolium bromide (MTT) reagent (Sigma-Aldrich, Poole, UK) was added to each well and the plate was incubated for a further 3 h at 37 °C. The medium was removed by aspiration and the wells were allowed to dry for 20 min. Then, 200 µL of dimethyl sulfoxide (DMSO) (Sigma-Aldrich, Poole, UK) was added to all wells and the plate was placed in an incubator for 30 min. The absorbance of the wells was read in a Tecan Genios (Männedorf, Switzerland) plate reader at 510 nm after 60 s of orbital shaking.

Data set [2] concerns Fusobacterium nucleatum biofilm. Nature of the data set: Biofilm inhibition assay with PMA-qPCR. Conditions: strain NCTC 10562, anaerobic, 96-well plate, 48 h with peptoid + 48 h maturation, n = 3 independent experiments. The procedure: The F. nucleatum type strain (NCTC 10562, originally isolated from human, inflamed gingival tissue) was obtained from the National Collection of Type Cultures. The optical density (OD) of an overnight culture was measured spectrophotometrically at 570 nm and diluted with fresh broth to an OD of 0.30–0.35. The culture was further diluted 1 in 50 with anaerobic broth, giving a final inoculum concentration of approximately 5 × 10^6 CFU/mL. A biofilm inhibition assay was undertaken in a 96-well plate format. Peptoids 4 and 9 were added along with the inoculum (90 µL of inoculum in broth and 10 µL of peptoid solution) to each well, to yield peptoid concentrations of 1 µM and 10 µM. A solution containing 10 µL of PBS and 90 µL of anaerobic broth acted as an untreated control. Biofilms were allowed to develop in the presence of peptoids 4 or 9 for 48 h. After 48 h biofilm development, planktonic cells were removed by gently washing three times with PBS and then replacing the broth with 100 µL of fresh anaerobic broth prior to a further 48 h incubation for biofilm maturation. After this time, the wells were gently washed three times with 100 µL of PBS to remove planktonic cells. Plates were then sealed with parafilm, and the biofilms were dislodged from the wells in an ultrasonic bath for 20 min. Plates were then returned to the anaerobic cabinet and the dislodged biofilm samples were collected in Eppendorf tubes.
Propidium monoazide (PMA)-qPCR was undertaken essentially as previously described. Briefly, PMA (Biotium, Fremont, CA, USA), was diluted 1 in 50 with PBS. The diluted PMA was then added to the dislodged biofilm samples in a 1:1 ratio in an Eppendorf tube, to give a final PMA concentration of 200 µM. The Eppendorfs were incubated at 37 °C for 10 min in the dark and then placed under a broad spectrum LED floodlight (ELRD, HL60 ^0 LEDx Max 0.1V) for 10 min. During this time, the Eppendorfs were inverted several times. Bacterial DNA was then extracted using the Qiagen blood and tissue kit (Germantown, MD, USA) according to the manufacturer’s instructions. Briefly, bacterial samples released from biofilms were centrifuged at 14000 RPM for 6 min, and the supernatant was removed. Bacterial pellets were resuspended in 200 µL of AL buffer, and 25 µL of proteinase K was added to each Eppendorf. The suspensions were then heated to 56 °C for 30 min with shaking. Following this, 200 µL of ethanol was added to each Eppendorf and mixed gently. The contents were placed in fresh spin columns in 2 mL collection tubes. The spin columns were centrifuged at 8000 RPM for 2 min. The flow-through and the collection tubes were discarded. The spin columns were placed in fresh collection tubes, and 500 µL of AW1 buffer was added to each column. […]
A general note: Quantitative PCR measures a nucleic acid by following its amplification.

Non-standard residues stand in square brackets, D forms with d. Residues, ends and D or L forms follow the SMILES beside them. Gly(N-(CH2)6NH2) = NCCCCCCNCC(=O)O; Gly(N-2-aminoethyl) = NCCNCC(=O)O; Nspe = C[C@H](NCC(=O)O)c1ccccc1; Nphe = O=C(O)CNCc1ccccc1; Nlys = NCCCCNCC(=O)O Where only a bound is given, the exact number is not on record here.

Take `NCCCCNCC(=O)N(CC(=O)N(CC(=O)N(CCCCN)CC(=O)N(CC(=O)N(CC(=O)N(CCCCN)CC(=O)N(CC(=O)N(CC(=O)N(CCCCN)CC(=O)N(CC(=O)N(CC(N)=O)Cc1ccccc1)Cc1ccccc1)Cc1ccccc1)Cc1ccccc1)Cc1ccccc1)Cc1ccccc1)Cc1ccccc1)Cc1ccccc1` [Peptoid 1] (H-[Nlys][Nphe][Nphe][Nlys][Nphe][Nphe][Nlys][Nphe][Nphe][Nlys][Nphe][Nphe]-NH2; N-terminus assumed): the “Percentage lysis of human erythrocytes” value in the data set with human erythrocytes is recorded as at least 10%. Same read-out and setting: under `C[C@@H](c1ccccc1)N(CC(N)=O)C(=O)CN(C(=O)CN(CCCCN)C(=O)CN(C(=O)CN(C(=O)CN(CCCCN)C(=O)CN(C(=O)CN(C(=O)CNCCCCN)[C@@H](C)c1ccccc1)[C@@H](C)c1ccccc1)[C@@H](C)c1ccccc1)[C@@H](C)c1ccccc1)[C@@H](C)c1ccccc1` [Peptoid 3] (H-[Nlys][Nspe][Nspe][Nlys][Nspe][Nspe][Nlys][Nspe][Nspe]-NH2; N-terminus assumed) stands at least 10%. For `NCCNCC(=O)N(CC(=O)N(CC(=O)N(CCN)CC(=O)N(CC(=O)N(CC(=O)N(CCN)CC(=O)N(CC(=O)N(CC(=O)N(CCN)CC(=O)N(CC(=O)N(CC(N)=O)Cc1ccccc1)Cc1ccccc1)Cc1ccccc1)Cc1ccccc1)Cc1ccccc1)Cc1ccccc1)Cc1ccccc1)Cc1ccccc1` [Peptoid 4, (NaeNpheNphe)4-NH2] (H-[Gly(N-2-aminoethyl)][Nphe][Nphe][Gly(N-2-aminoethyl)][Nphe][Nphe][Gly(N-2-aminoethyl)][Nphe][Nphe][Gly(N-2-aminoethyl)][Nphe][Nphe]-NH2; N-terminus assumed), the “Percentage lysis of human erythrocytes” value with human erythrocytes is given as at least 10%. Besides, the “Viability of gingival fibroblasts (MTT) vs untreated controls” value in data set [1] is on record as “not to alter gingival fibroblast viability”. Moreover, the “F. nucleatum biofilm formation (live cell numbers by PMA-qPCR)” value in data set [2] (peptoid 1 µM) and in data set [2] (peptoid 10 µM) was “statistically significant reduction in biofilm formation” each time. Turning to `C[C@@H](c1ccccc1)N(CC(N)=O)C(=O)CN(C(=O)CN(CCN)C(=O)CN(C(=O)CN(C(=O)CN(CCN)C(=O)CN(C(=O)CN(C(=O)CNCCN)[C@@H](C)c1ccccc1)[C@@H](C)c1ccccc1)[C@@H](C)c1ccccc1)[C@@H](C)c1ccccc1)[C@@H](C)c1ccccc1` [Peptoid 5] (H-[Gly(N-2-aminoethyl)][Nspe][Nspe][Gly(N-2-aminoethyl)][Nspe][Nspe][Gly(N-2-aminoethyl)][Nspe][Nspe]-NH2; N-terminus assumed), the “Percentage lysis of human erythrocytes” value in the data set with human erythrocytes is at least 10%.

Take `NCCCCCCNCC(=O)N(CC(=O)N(CC(=O)N(CCCCCCN)CC(=O)N(CC(=O)N(CC(=O)N(CCCCCCN)CC(=O)N(CC(=O)N(CC(=O)N(CCCCCCN)CC(=O)N(CC(=O)N(CC(N)=O)Cc1ccccc1)Cc1ccccc1)Cc1ccccc1)Cc1ccccc1)Cc1ccccc1)Cc1ccccc1)Cc1ccccc1)Cc1ccccc1` [Peptoid 6] (H-[Gly(N-(CH2)6NH2)][Nphe][Nphe][Gly(N-(CH2)6NH2)][Nphe][Nphe][Gly(N-(CH2)6NH2)][Nphe][Nphe][Gly(N-(CH2)6NH2)][Nphe][Nphe]-NH2; N-terminus assumed): in the data set on human erythrocytes, the “Percentage lysis of human erythrocytes” value is listed as “less than 5%”. For the compound `NCCCCCCNCC(=O)N(CC(=O)N(CC(=O)N(CCCCCCN)CC(=O)N(CC(=O)N(CC(=O)N(CCCCCCN)CC(=O)N(CC(=O)N(CC(N)=O)Cc1ccccc1)Cc1ccccc1)Cc1ccccc1)Cc1ccccc1)Cc1ccccc1)Cc1ccccc1` [Peptoid 7] (H-[Gly(N-(CH2)6NH2)][Nphe][Nphe][Gly(N-(CH2)6NH2)][Nphe][Nphe][Gly(N-(CH2)6NH2)][Nphe][Nphe]-NH2; N-terminus assumed), the “Percentage lysis of human erythrocytes” value with human erythrocytes was “less than 5%”. For `C[C@@H](c1ccccc1)N(CC(N)=O)C(=O)CN(C(=O)CN(CCCCCCN)C(=O)CN(C(=O)CN(C(=O)CN(CCCCCCN)C(=O)CN(C(=O)CN(C(=O)CNCCCCCCN)[C@@H](C)c1ccccc1)[C@@H](C)c1ccccc1)[C@@H](C)c1ccccc1)[C@@H](C)c1ccccc1)[C@@H](C)c1ccccc1` [Peptoid 9, (NahNspeNspe)3-NH2] (H-[Gly(N-(CH2)6NH2)][Nspe][Nspe][Gly(N-(CH2)6NH2)][Nspe][Nspe][Gly(N-(CH2)6NH2)][Nspe][Nspe]-NH2; N-terminus assumed), in the data set with human erythrocytes, the “Percentage lysis of human erythrocytes” value is given as “less than 5%”. Further, the “Viability of gingival fibroblasts (MTT) vs untreated controls” value in data set [1] is listed as “not to alter gingival fibroblast viability”. The “F. nucleatum biofilm formation (live cell numbers by PMA-qPCR)” value in data set [2] (peptoid 1 µM) and in data set [2] (peptoid 10 µM) was “statistically significant reduction in biofilm formation” throughout.
